The results in this text go back to ChEMBL document CHEMBL5465560, “Selectivity Literature for EUbOPEN Chemogenomic Library” (2024).

The target in assay [1] is T1, Histone-lysine N-methyltransferase EHMT1 (Homo sapiens) (UniProt Q9H9B1).
T1 sequence (whole entry): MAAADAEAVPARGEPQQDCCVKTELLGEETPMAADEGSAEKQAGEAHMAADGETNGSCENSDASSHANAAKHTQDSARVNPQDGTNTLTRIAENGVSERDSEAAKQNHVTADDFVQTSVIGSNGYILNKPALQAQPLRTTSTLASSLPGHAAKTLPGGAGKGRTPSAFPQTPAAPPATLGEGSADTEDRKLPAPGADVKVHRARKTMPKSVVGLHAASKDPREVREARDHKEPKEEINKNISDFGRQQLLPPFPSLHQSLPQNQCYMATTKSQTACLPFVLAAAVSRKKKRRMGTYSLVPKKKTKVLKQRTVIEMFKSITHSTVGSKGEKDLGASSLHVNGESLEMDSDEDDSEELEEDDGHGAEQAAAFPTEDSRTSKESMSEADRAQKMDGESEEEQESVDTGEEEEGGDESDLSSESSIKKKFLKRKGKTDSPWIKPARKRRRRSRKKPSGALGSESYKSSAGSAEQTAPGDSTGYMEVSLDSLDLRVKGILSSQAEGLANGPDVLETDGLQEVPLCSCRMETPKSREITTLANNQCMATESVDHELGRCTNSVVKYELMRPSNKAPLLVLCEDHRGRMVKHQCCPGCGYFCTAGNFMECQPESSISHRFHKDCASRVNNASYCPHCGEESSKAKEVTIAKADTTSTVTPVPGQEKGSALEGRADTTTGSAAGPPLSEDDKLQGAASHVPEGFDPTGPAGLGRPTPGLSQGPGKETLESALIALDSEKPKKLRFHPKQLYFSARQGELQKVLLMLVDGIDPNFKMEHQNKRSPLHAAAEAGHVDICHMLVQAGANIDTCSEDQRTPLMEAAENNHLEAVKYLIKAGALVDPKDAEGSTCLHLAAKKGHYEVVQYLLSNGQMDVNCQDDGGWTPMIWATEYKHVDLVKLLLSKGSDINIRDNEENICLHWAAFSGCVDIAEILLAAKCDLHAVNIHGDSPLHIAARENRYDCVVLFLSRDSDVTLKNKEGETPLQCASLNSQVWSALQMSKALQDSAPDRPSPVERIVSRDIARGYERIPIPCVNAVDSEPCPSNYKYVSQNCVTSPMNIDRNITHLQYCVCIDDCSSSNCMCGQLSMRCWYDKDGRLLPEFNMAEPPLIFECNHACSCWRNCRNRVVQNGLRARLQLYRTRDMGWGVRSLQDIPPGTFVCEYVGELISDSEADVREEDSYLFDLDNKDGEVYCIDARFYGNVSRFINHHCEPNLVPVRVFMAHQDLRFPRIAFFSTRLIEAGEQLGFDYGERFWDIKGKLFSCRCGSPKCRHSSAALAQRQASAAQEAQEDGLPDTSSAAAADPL
Kind of assay: Selectivity interaction (Methyltransferase screen (Scintillation proximity assays)) EUB0000255b EHMT1. A general note: In a scintillation proximity assay essentially only radioactivity close to the scintillant gives light.

Assay [2] concerns the target T2, Serine/threonine-protein kinase Nek2 (Homo sapiens) (UniProt P51955).
T2 sequence (whole entry): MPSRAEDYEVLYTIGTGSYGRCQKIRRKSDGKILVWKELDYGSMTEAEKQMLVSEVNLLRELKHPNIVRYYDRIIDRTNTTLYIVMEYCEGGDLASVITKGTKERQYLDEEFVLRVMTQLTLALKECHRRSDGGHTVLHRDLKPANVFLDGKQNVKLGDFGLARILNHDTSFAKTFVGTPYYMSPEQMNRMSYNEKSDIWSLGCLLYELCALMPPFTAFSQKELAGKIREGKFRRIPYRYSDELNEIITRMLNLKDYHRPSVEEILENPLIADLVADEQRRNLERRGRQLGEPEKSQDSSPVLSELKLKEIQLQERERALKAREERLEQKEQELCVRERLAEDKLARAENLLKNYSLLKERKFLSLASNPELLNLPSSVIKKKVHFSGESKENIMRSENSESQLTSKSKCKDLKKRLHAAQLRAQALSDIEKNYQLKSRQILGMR
Put plainly: Selectivity interaction (KinomeScan (DiscoverX)) EUB0000655a NEK2. To be noted: at 10 µM.

The target in assay [3] is Serine/threonine-protein kinase OSR1 (Homo sapiens) (UniProt O95747). Put plainly: Selectivity interaction (KinomeScan (DiscoverX)) EUB0000607a OXSR1. To be noted: at 10 µM.
Chain of Serine/threonine-protein kinase OSR1 (Homo sapiens) (O95747 2-527 limits assumed): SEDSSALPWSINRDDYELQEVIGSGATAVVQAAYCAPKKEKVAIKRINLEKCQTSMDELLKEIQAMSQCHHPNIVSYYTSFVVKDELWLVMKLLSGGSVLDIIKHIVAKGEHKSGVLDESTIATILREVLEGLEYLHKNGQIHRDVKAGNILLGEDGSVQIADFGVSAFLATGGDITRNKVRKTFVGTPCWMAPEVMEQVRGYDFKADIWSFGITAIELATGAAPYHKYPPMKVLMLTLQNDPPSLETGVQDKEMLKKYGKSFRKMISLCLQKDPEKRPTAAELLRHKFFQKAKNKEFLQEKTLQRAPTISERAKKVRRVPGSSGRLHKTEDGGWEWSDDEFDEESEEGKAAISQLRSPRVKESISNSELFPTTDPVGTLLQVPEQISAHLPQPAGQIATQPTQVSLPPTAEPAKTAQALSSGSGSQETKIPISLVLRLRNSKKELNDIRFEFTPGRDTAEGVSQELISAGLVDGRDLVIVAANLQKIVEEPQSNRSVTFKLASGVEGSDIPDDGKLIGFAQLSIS
The target in assay [4] is T3, Calcium/calmodulin-dependent protein kinase type IV (Homo sapiens) (UniProt Q16566).
T3 sequence (whole entry): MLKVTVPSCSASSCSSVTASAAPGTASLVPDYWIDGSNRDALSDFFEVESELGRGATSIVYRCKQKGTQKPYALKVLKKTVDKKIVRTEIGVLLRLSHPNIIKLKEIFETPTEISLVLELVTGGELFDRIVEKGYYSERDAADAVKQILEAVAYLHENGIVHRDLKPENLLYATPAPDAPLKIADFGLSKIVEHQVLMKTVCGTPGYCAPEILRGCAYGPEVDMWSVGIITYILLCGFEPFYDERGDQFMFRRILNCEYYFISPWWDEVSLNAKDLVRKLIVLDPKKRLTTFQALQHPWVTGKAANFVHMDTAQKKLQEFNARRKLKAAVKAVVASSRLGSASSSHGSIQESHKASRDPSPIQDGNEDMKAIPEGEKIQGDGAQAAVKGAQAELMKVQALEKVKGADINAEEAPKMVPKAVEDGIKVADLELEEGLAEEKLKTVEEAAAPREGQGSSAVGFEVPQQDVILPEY
Put plainly: Selectivity interaction (Kinase panel (Invitrogen)) EUB0000639a CAMK4. The conditions noted are these: at 200 nM.

The target of assay [5] is Sigma intracellular receptor 2 (Homo sapiens) (UniProt Q5BJF2). Kind of assay: Selectivity interaction (GPCR panel (PDSP screen)) EUB0000311b TMEM97. To be noted: at 10 µM.
Chain of Sigma intracellular receptor 2 (Homo sapiens) (Q5BJF2 whole entry): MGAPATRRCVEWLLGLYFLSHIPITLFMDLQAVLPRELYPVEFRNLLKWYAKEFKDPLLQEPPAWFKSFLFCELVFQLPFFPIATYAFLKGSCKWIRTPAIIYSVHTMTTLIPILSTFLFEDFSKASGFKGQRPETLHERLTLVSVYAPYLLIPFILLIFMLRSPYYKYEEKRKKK
Assay [6] deals with T4, Serine/threonine-protein kinase 3 (Homo sapiens) (UniProt Q13188).
T4 sequence (whole entry): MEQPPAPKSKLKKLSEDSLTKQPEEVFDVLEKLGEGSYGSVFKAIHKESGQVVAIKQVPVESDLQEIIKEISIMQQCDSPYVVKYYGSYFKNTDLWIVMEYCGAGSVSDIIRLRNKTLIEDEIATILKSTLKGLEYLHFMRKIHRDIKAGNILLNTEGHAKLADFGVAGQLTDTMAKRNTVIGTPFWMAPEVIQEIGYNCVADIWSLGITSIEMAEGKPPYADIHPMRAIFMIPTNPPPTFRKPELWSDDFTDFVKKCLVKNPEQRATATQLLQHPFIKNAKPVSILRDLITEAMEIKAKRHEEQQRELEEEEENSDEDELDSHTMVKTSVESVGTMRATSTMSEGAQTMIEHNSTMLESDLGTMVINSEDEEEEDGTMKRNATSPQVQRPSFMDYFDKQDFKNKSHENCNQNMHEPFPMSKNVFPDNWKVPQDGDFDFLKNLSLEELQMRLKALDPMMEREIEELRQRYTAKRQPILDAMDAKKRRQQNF
Put plainly: Selectivity interaction (ActivX KiNativ screen (ex vivo kinase selectivity in human PBMCs)) EUB0001619a STK3. In kind it is cell-based. The conditions noted are these: PBMC, at 1 µM.

Take `COCCN1CCC(c2cc(CN(C)C(=O)c3cccc(Oc4ccccc4)c3)ccn2)CC1`: the % activity in assay [1] (at 1 µM) is > 95%; in assay [1] (at 10 µM), > 90%. In assay [2], `CN(C)CCOc1ccc(-c2nc(-c3ccncc3)c(-c3ccc4c(c3)CC/C4=N\O)[nH]2)cc1` had a % of control of 100%.

In the case of `CNC(=O)Nc1ccc(-c2nc(N3CC4CCC(C3)O4)c3cnn(C4CCC5(CC4)OCCO5)c3n2)cc1`, the % of control in assay [3] is 100%. On to `CC[C@@H]1[C@H](F)C(=O)N[C@@H]1COc1nccc2cc(C(N)=O)c(OC)cc12` [ZIMLOVISERTIB], for which the % of inhibition in assay [4] is -8.2%. Consider `CCc1ccccc1C(=O)Nc1n[nH]c2c(C)c(F)c(C3C(C#N)=C(C)N(C)C(C)=C3C#N)cc12` [BAY-3827], for which the % of inhibition in assay [5] was 78.3%. On to `N#Cc1cccc(-c2c[nH]c3ncnc(N4CCOCC4)c23)c1`, for which the % of inhibition in assay [6] worked out at 71%.
